# Source: patent publication US11766425B2, “Antibiotic combination therapies” (BIOVERSYS AG, priority 2019, dated 2023)
# Read-outs that look alike come from different tables or passages of the source. Bridge positions count the residues as written; N and C are the ends. Square brackets hold non-standard residues; d marks the D form. Peptide text beside a SMILES is read from it. Dab = NCC[C@H](N)C(=O)O
# Columns and labels:
# Type in all cases: cell-based, Acinetobacter baumannii
# [1] = test system: A. baumannii LAC-4 strain; test: broth microdilution checkerboard MIC/synergy; conditions: for MICs alone: antibiotic alone
# Procedure: (§1) Checkerboards were performed according to the CLSI parameters used for microbroth dilution MIC5. CA-MHB, iron-depleted CA-MHB (ID-CA-MHB) or RPMI supplemented with 10% FCS medium were used as specified and ID-CA-MHB was prepared according to CLSI guidelines. […] FICI is calculated as follows: […]
# The checkerboards were performed in CA-MHB or ID-CA-MHB for cefiderocol.
# A. baumannii 401046-18 = test: broth microdilution checkerboard MIC/synergy; conditions: strain 401046-18; for MICs alone: antibiotic alone
# Procedure: as §1
# A. baumannii 402292-17 = test: broth microdilution checkerboard MIC/synergy; conditions: strain 402292-17; for MICs alone: antibiotic alone
# Procedure: as §1
# A. baumannii UNT191-1 = test: broth microdilution checkerboard MIC/synergy; conditions: strain UNT191-1; for MICs alone: antibiotic alone
# Procedure: as §1
# A. baumannii IHMA919656 = test: broth microdilution checkerboard MIC/synergy; conditions: strain IHMA919656; for MICs alone: antibiotic alone
# Procedure: as §1
# A. baumannii 402608-17 = test: broth microdilution checkerboard MIC/synergy; conditions: strain 402608-17; for MICs alone: antibiotic alone
# Procedure: as §1
# A. baumannii UNT239-1 = test: broth microdilution checkerboard MIC/synergy; conditions: strain UNT239-1; for MICs alone: antibiotic alone
# Procedure: as §1
# A. baumannii IHMA867231 = test: broth microdilution checkerboard MIC/synergy; conditions: strain IHMA867231; for MICs alone: antibiotic alone
# Procedure: as §1
# A. baumannii ACC00535 = test: broth microdilution checkerboard MIC/synergy; conditions: strain ACC00535; rifabutin/SPR741 in combination
# Procedure: as §1
# A. baumannii UNT087-1 = test: broth microdilution checkerboard MIC/synergy; conditions: strain UNT087-1; for MICs alone: antibiotic alone
# Procedure: as §1
# A. baumannii UNT238-1 = test: broth microdilution checkerboard MIC/synergy; conditions: strain UNT238-1; for MICs alone: antibiotic alone
# Procedure: as §1
# A. baumannii HUMC1 = test: broth microdilution checkerboard MIC/synergy; conditions: strain HUMC1; for MICs alone: antibiotic alone
# Procedure: as §1
# A. baumannii IHMA1013816 = test: broth microdilution checkerboard MIC/synergy; conditions: strain IHMA1013816; for MICs alone: antibiotic alone
# Procedure: as §1
# A. baumannii 401255-18 = test: broth microdilution checkerboard MIC/synergy; conditions: strain 401255-18; for MICs alone: antibiotic alone
# Procedure: as §1
# A. baumannii IHMA863866 = test: broth microdilution checkerboard MIC/synergy; conditions: strain IHMA863866; for MICs alone: antibiotic alone
# Procedure: as §1
# A. baumannii IHMA690517 = test: broth microdilution checkerboard MIC/synergy; conditions: strain IHMA690517; for MICs alone: antibiotic alone
# Procedure: as §1
# A. baumannii UNT091-1 = test: broth microdilution checkerboard MIC/synergy; conditions: strain UNT091-1; for MICs alone: antibiotic alone
# Procedure: as §1
# [2] = test system: panel of MDR clinical isolates of A. baumannii
# Procedure: as §1
# [3] = rifabutin/SPR741 in combination
# [4] = second antibiotic in combination with rifabutin, LAC-4, CA-MHB
# [5] = rifabutin/colistin checkerboard, CA-MHB
# [6] = rifampicin/colistin checkerboard
# [7] = rifampicin/colistin in combination
# [8] = rifabutin/colistin in combination, CA-MHB
molecule,measurement,setting,value
CC(=O)N[C@H](C(=O)N[C@H](CO)C(=O)N[C@H]1CCNC(=O)[C@H]([C@@H](C)O)NC(=O)[C@H](CCN)NC(=O)[C@H](CCN)NC(=O)[C@H](CC(C)C)NC(=O)[C@@H](Cc2ccccc2)NC(=O)[C@H](CCN)NC1=O)[C@@H](C)O [SPR741] (Ac-T[dS][Dab][Dab][dF]L[Dab][Dab]T; lactam 3-C),MICs combi / in combination,"[1]; strain LAC-4, rifabutin/SPR741 in combination",4 mg/L
same,MICs combi / in combination,A. baumannii 401046-18; [3],8 mg/L
same,MICs combi / in combination,A. baumannii 402292-17; [3],32 mg/L
same,MICs combi / in combination,A. baumannii UNT191-1; [3],4 mg/L
same,MICs combi / in combination,A. baumannii IHMA919656; [3],8 mg/L
same,MICs combi / in combination,A. baumannii 402608-17; [3],16 mg/L
same,MICs combi / in combination,A. baumannii UNT239-1; [3],4 mg/L
same,MICs combi / in combination,A. baumannii IHMA867231; [3],32 mg/L
same,MICs combi / in combination,A. baumannii ACC00535,4 mg/L
same,MICs combi / in combination,A. baumannii UNT087-1; [3],8 mg/L
same,MICs combi / in combination,A. baumannii UNT238-1; [3],4 mg/L
same,MICs combi / in combination,A. baumannii HUMC1; [3],4 mg/L
same,MICs combi / in combination,A. baumannii IHMA1013816; [3],16 mg/L
same,MICs combi / in combination,A. baumannii 401255-18; [3],4 mg/L
same,MICs combi / in combination,A. baumannii IHMA863866; [3],16 mg/L
same,MICs combi / in combination,A. baumannii IHMA690517; [3],16 mg/L
same,MICs combi / in combination,A. baumannii UNT091-1; [3],2 mg/L
same,"SPR741 concentration required to achieve synergy with rifabutin, relative to colistin",[2]; higher than the one of colistin,at least 8 fold
same,strains on which synergy was observed,[2]; rifabutin with SPR741,88%
colistin,FICI,[1]; [4],0.254
same,Interpretation,[1]; [4],synergy (synergy (FICI≤0.5))
same,MICs alone,"[1]; strain LAC-4, rifabutin/colistin checkerboard, CA-MHB",0.5 mg/L
same,MICs alone,"[1]; strain LAC-4, rifampicin/colistin checkerboard",0.5 mg/L
same,MICs alone,A. baumannii 401046-18; [5],0.5 mg/L
same,MICs alone,A. baumannii 401046-18; [6],0.25 mg/L
same,MICs combi,A. baumannii 401046-18; [7],0.06 mg/L
same,MICs alone,A. baumannii 402292-17; [5],1 mg/L
same,MICs alone,A. baumannii 402292-17; [6],0.25 mg/L
same,MICs combi,A. baumannii 402292-17; [8],0.25 mg/L
same,MICs alone,A. baumannii UNT191-1; [5],2 mg/L
same,MICs alone,A. baumannii UNT191-1; [6],1 mg/L
same,MICs combi,A. baumannii UNT191-1; [8],0.5 mg/L
same,MICs combi,A. baumannii UNT191-1; [7],0.25 mg/L
same,MICs alone,A. baumannii IHMA919656; [5],512 mg/L
same,MICs alone,A. baumannii IHMA919656; [6],512 mg/L
same,MICs combi,A. baumannii IHMA919656; [8],1 mg/L
same,MICs combi,A. baumannii IHMA919656; [7],1 mg/L
same,MICs alone,A. baumannii 402608-17; [5],1 mg/L
same,MICs alone,A. baumannii 402608-17; [6],1 mg/L
same,MICs combi,A. baumannii 402608-17; [8],0.25 mg/L
same,MICs combi,A. baumannii 402608-17; [7],0.25 mg/L
same,MICs alone,A. baumannii UNT239-1; [5],1 mg/L
same,MICs alone,A. baumannii UNT239-1; [6],1 mg/L
same,MICs combi,A. baumannii UNT239-1; [8],0.25 mg/L
same,MICs combi,A. baumannii UNT239-1; [7],0.25 mg/L
same,MICs alone,A. baumannii IHMA867231; [5],32 mg/L
same,MICs alone,A. baumannii IHMA867231; [6],32 mg/L
same,MICs combi,A. baumannii IHMA867231; [8],4 mg/L
same,MICs combi,A. baumannii IHMA867231; [7],4 mg/L
same,MICs alone,A. baumannii UNT087-1; [5],1 mg/L
same,MICs alone,A. baumannii UNT087-1; [6],0.5 mg/L
same,MICs combi,A. baumannii UNT087-1; [8],0.25 mg/L
same,MICs alone,A. baumannii UNT238-1; [5],0.25 mg/L
same,MICs alone,A. baumannii UNT238-1; [6],0.5 mg/L
same,MICs combi,A. baumannii UNT238-1; [8],0.06 mg/L
same,MICs alone,A. baumannii HUMC1; [5],0.5 mg/L
same,MICs alone,A. baumannii HUMC1; [6],0.5 mg/L
same,MICs alone,A. baumannii IHMA1013816; [5],16 mg/L
same,MICs alone,A. baumannii IHMA1013816; [6],32 mg/L
same,MICs combi,A. baumannii IHMA1013816; [8],<0.5 mg/L
same,MICs combi,A. baumannii IHMA1013816; [7],<0.5 mg/L
same,MICs alone,A. baumannii 401255-18; [5],0.25 mg/L
same,MICs alone,A. baumannii 401255-18; [6],0.25 mg/L
same,MICs combi,A. baumannii 401255-18; [8],0.06 mg/L
same,MICs combi,A. baumannii 401255-18; [7],0.06 mg/L
same,MICs alone,A. baumannii IHMA863866; [5],>512 mg/L
same,MICs alone,A. baumannii IHMA863866; [6],512 mg/L
same,MICs combi,A. baumannii IHMA863866; [8],1 mg/L
same,MICs combi,A. baumannii IHMA863866; [7],0.5 mg/L
same,MICs alone,A. baumannii IHMA690517; [5],16 mg/L
same,MICs alone,A. baumannii IHMA690517; [6],16 mg/L
same,MICs combi,A. baumannii IHMA690517; [8],0.5 mg/L
same,MICs combi,A. baumannii IHMA690517; [7],<0.5 mg/L
same,MICs alone,A. baumannii UNT091-1; [5],0.5 mg/L
same,MICs alone,A. baumannii UNT091-1; [6],0.5 mg/L
same,reduction of colistin MICs,"[2]; in combination with rifabutin, colistin resistant strains, CA-MHB",at least 16 fold
same,strains on which synergy was observed,"[2]; rifabutin with colistin, CA-MHB, 16 MDR isolates",100%
